Publication PMC11125018 (Pharmaceuticals, 2024)
Where “and” joins values, the source holds several entries; their conditions need not be identical. Equal values may be shown once. Read-outs that look alike come from different tables or passages of the source.

Tests used:
CB1 receptor [1] = target: T1, CB1 receptor (Homo sapiens, UniProt P21554); experiment: cell-based; type: cell-based; settings: for Hill Slope / Maximum RE (%): antagonist mode, parentheses = SD; for Hill Slope: four-parameter log-logistic fit, three measurements; for Maximum RE (%): 100% normalized to maximum AM-281, 0% to vehicle
T1 construct: host or cells: CHO-K1
T1 sequence (P21554 whole entry): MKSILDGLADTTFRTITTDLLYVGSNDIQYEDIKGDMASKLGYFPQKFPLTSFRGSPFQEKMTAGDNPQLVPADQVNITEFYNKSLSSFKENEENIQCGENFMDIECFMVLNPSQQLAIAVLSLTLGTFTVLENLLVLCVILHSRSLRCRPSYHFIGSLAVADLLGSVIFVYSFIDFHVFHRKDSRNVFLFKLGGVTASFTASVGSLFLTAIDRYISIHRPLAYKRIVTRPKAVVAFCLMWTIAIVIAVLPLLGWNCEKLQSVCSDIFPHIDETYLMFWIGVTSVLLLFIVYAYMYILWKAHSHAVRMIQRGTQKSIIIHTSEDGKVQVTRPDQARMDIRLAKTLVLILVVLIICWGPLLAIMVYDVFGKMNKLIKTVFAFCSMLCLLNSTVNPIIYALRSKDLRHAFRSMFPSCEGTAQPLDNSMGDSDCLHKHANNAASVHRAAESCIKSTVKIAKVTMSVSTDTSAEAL
Method: (§1) For agonist and antagonist assays, PathHunter® CHO-K1 CNR1 (Eurofins DiscoverX, Fremont, CA, USA, Catalog number: 93-0959C2) β-Arrestin cells were expanded from freezer stocks according to standard procedures provided by Eurofins. The cell line manual was followed for cell growth (including cell culture media and supplementation, the handling and preparation of cells, etc.), test procedure, and signal detection. Cells were seeded in a total volume of 20 µL (5000 cells) into white-walled, 384-well microplates and incubated at 37 °C overnight prior to testing. After preparing stock acetonitrile solution at 1 mg/mL concentration of ligand, compound intermediate concentrations were achieved by a 10-point series of 3-fold compound serial dilutions in a compound dilution buffer in a separate dilution plate.
For antagonist determination, cells were pre-incubated with THCV isomers, followed by agonist challenge at the EC80 concentration. Each THCV dilution was prepared at a 10X concentration relative to the intended final concentrations for screening. An amount of 2.5 µL of these samples were introduced into the cells, achieving a maximum final concentration of 5 µM for THCV and ~0.2 v/v% for acetonitrile. The assay plate was incubated at 37 °C for 30 min in an atmosphere containing 5% CO2. […] Cells were incubated for 90 min at 37 °C and 5% CO2. To generate the assay signal, 12.5 µL of working detection solution was added to the cells, which were then left to incubate for an hour at room temperature in the dark. The signal detection was carried out using a PerkinElmer Envision (Waltham, MA, USA) instrument to measure chemiluminescence.

CB2 receptor = settings: in vitro studies; cited from earlier work
CB1 = settings: cAMP assay, cited from earlier work; for EC50: read-out: agonist EC50
CB1 receptor [2] = target: T1, CB1 receptor; experiment: PathHunter β-arrestin recruitment assay, agonist mode, CB1 expressing CHO-K1 cell line; type: cell-based; settings: for EC50: EC50 (nM), agonist effect, 90 min incubation, parentheses = SD of three independent measurements; for Hill Slope: four-parameter log-logistic fit, three measurements; for Hill Slope / Maximum RE (%): parentheses = SD; for Maximum RE (%): 100% normalized to maximum (±)-CP 55,940 stimulation, 0% to vehicle; for classification as partial agonist of the CB1 cannabinoid receptor: relative to full agonist CP 55940; for agonist property: tested up to 5 µM
Method: as §1
For the agonist assay, the concentration of each dilution was prepared at 5X of the final screening concentration. An amount of 5 µL of samples was added to cells (highest final concentration = 5 µM, maximum acetonitrile = 0.2 v/v%) and incubated at 37 °C for 90 min (5% CO2). To generate the assay signal, 12.5 µL of working detection solution was added to the cells, which were then left to incubate for an hour at room temperature in the dark. The signal detection was carried out using a PerkinElmer Envision instrument to measure chemiluminescence.

| SMILES | Hill Slope (CB1 receptor [1]) | Maximum RE (%) (CB1 receptor [1]) | CB2 selectivity (CB2 receptor) [times] | EC50 (CB1) [nM] | EC50 (CB1 receptor [2]) | Hill Slope (CB1 receptor [2]; agonist mode) | Maximum RE (%) (CB1 receptor [2]; agonist mode) | classification as partial agonist of the CB1 cannabinoid receptor (CB1 receptor [2]) | IC50 (CB1 receptor [1]; IC50 (nM)) [nM] | agonist property (CB1 receptor [2]; agonist mode) | also measured |
| --- | --- | --- | --- | --- | --- | --- | --- | --- | --- | --- | --- |
| Cc1c(C(=O)NN2CCOCC2)nn(-c2ccc(Cl)cc2Cl)c1-c1ccc(I)cc1 [AM-281, reference compound] | 0.81 (0.07) | 101.90 (1.63) % | – | – | – | – | – | – | – | – | IC50 (CB1 receptor [1]; read-out: IC50): 17.7 nM |
| CCCCCc1cc(O)c2c(c1)OC(C)(C)[C@@H]1CC[C@@H](C)C[C@@H]21 [9R-HHC, hexahydrocannabinol] | – | – | 1.2 | 3.4 | 53.4 nM and 53.5 nM | 0.56 (0.07) | 41.51% and 41.51 (1.70) % | moderate | – | – | fold higher agonist potency than 9S-HHC (CB1): approximately 16 fold |
| CCCCCCC(C)(C)c1ccc([C@@H]2C[C@H](O)CC[C@H]2CCCO)c(O)c1 [CP 55940, reference compound] | – | – | – | – | – | 0.90 (0.10) | 105.50 (3.34) % | – | – | – | – |
| CCCc1cc(O)c2c(c1)OC(C)(C)[C@@H]1CCC(C)=C[C@@H]21 [∆9-THCV, tetrahydrocannabivarin] | 1.38 (0.18) | 96.46 (2.20) % | – | – | – | – | – | – | 52.4 | failed to show any significant agonist property | fold less potent antagonist than AM-281 (CB1 receptor [1]): ~ 3 ×; fold less potent antagonist than rimonabant (CB1 receptor [1]): ~ 45 ×; Emax (CB1 receptor [2]; CHO-K1, agonist mode, up to 5 µM, insignificant increase from baseline): 1.19% |
| CCCCCc1cc(O)c2c(c1)OC(C)(C)[C@@H]1CC[C@H](C)C[C@@H]21 [9S-HHC, hexahydrocannabinol] | – | – | 1.7 | 57 | 624 nM | 0.95 (0.08) | 20.58% and 20.58 (0.80) % | weak | – | – | – |
| CCCc1cc(O)c2c(c1)OC(C)(C)[C@@H]1CC=C(C)C[C@@H]21 [∆8-THCV, tetrahydrocannabivarin] | 1.37 (0.09) | 97.40 (1.16) % | – | – | – | – | – | – | 120 | failed to show any significant agonist property | – |
